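Each compound was tested at five concentrations against cells in 96-well plates for 48 hours. GI50: concentration for 50% inhibition of growth. TGI: total growth inhibition.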
What was measured:
Assay in all cases: growth of human tumour cells (NCI), 48 h
[1] = test system: HOP-92 NSCLC
[2] = test system: ACHN renal
[3] = test system: OVCAR-5 ovarian
[4] = test system: NCI-H460 lung
[5] = test system: NCI-H23 lung
[6] = test system: MOLT-4 leukemia
[7] = test system: IGROV1 ovarian
[8] = test system: SF-539 CNS
[9] = test system: TK-10 renal
[10] = test system: A498 renal
[11] = test system: NCI-H522 lung
[12] = test system: MDA-MB-468 breast
[13] = test system: MALME-3M melanoma
[14] = test system: DU-145 prostate
[15] = test system: 786-0 renal
[16] = test system: SW-620 colon
[17] = test system: HOP-62 NSCLC
[18] = test system: T-47D breast
[19] = test system: RPMI-8226 leukemia
[20] = test system: HS 578T breast
[21] = test system: HT29 colon
[22] = test system: SNB-75 CNS
[23] = test system: SR leukemia
[24] = test system: NCI-H226 lung
[25] = test system: OVCAR-8 ovarian
[26] = test system: SN12C renal
[27] = test system: A549 NSCLC
[28] = test system: CCRF-CEM leukemia
[29] = test system: KM12 colon
[30] = test system: SF-268 CNS
[31] = test system: MDA-MB-435
[32] = test system: UACC-257 melanoma
[33] = test system: U251 CNS
[34] = test system: MCF7 breast
[35] = test system: SK-MEL-28 melanoma
[36] = test system: SF-295 CNS
[37] = test system: PC-3 prostate
[38] = test system: EKVX NSCLC
[39] = test system: RXF 393 renal
[40] = test system: OVCAR-4 ovarian
[41] = test system: BT-549 breast
[42] = test system: UACC-62 melanoma
[43] = test system: SK-MEL-2 melanoma
[44] = test system: SNB-19 CNS
[45] = test system: CAKI-1 renal
[46] = test system: UO-31 renal
[47] = test system: M14 melanoma
[48] = test system: COLO 205 colon
[49] = test system: SK-MEL-5 melanoma
[50] = test system: MDA-MB-231 breast
[51] = test system: HCT-116 colon
[52] = test system: SK-OV-3 ovarian
[53] = test system: LOX IMVI melanoma
[54] = test system: HCC-2998 colon
[55] = test system: K-562 leukemia
[56] = test system: OVCAR-3 ovarian
[57] = test system: HCT-15 colon
[58] = test system: HL-60(TB) leukemia

O=C(/C=C/c1cccc(Br)c1)c1nc2ccccc2n1Cc1ccc(F)cc1
GI50 [1]: 3.26 µM
TGI [1]: 35 µM
GI50 [2]: 13.3 µM
TGI [2]: 40.6 µM
GI50 [3]: 11.8 µM
TGI [3]: 27.7 µM
GI50 [4]: 4.65 µM
TGI [4]: 20 µM
GI50 [5]: 9.04 µM
TGI [5]: 26 µM
GI50 [6]: 3.85 µM
TGI [6]: > 100 µM
GI50 [7]: 8.02 µM
TGI [7]: 32.4 µM
GI50 [8]: 13.6 µM
TGI [8]: 26.8 µM
GI50 [9]: 17.1 µM
TGI [9]: 57.5 µM
GI50 [10]: 54.3 µM
TGI [10]: > 100 µM
GI50 [11]: 10.9 µM
TGI [11]: 32.7 µM
GI50 [12]: 5.02 µM
TGI [12]: 18.2 µM
GI50 [13]: 11.6 µM
TGI [13]: 26 µM
GI50 [14]: 12.6 µM
TGI [14]: 47.6 µM
GI50 [15]: 11.8 µM
TGI [15]: 26.2 µM
GI50 [16]: 3.8 µM
TGI [16]: 14.6 µM
GI50 [17]: 14.6 µM
TGI [17]: 38.8 µM
GI50 [18]: 5.01 µM
TGI [18]: 84.2 µM
GI50 [19]: 4.02 µM
TGI [19]: > 100 µM
GI50 [20]: 9.74 µM
TGI [20]: > 100 µM
GI50 [21]: 5.23 µM
TGI [21]: 20.6 µM
GI50 [22]: 3.24 µM
TGI [22]: 68.1 µM
GI50 [23]: 4.73 µM
TGI [23]: > 100 µM
GI50 [24]: 17 µM
TGI [24]: 44 µM
GI50 [25]: 5.05 µM
TGI [25]: 27.1 µM
GI50 [26]: 14.9 µM
TGI [26]: 40.1 µM
GI50 [27]: 14.2 µM
TGI [27]: 96.3 µM
GI50 [28]: 3.83 µM
TGI [28]: > 100 µM
GI50 [29]: 5.52 µM
TGI [29]: 22.4 µM
GI50 [30]: 16.7 µM
TGI [30]: > 100 µM
GI50 [31]: 3.87 µM
TGI [31]: 16.2 µM
GI50 [32]: 10.7 µM
TGI [32]: 31.1 µM
GI50 [33]: 5.49 µM
TGI [33]: 20.3 µM
GI50 [34]: 2830 nM
TGI [34]: 16.7 µM
GI50 [35]: 9.33 µM
TGI [35]: 23.1 µM
GI50 [36]: 11.3 µM
TGI [36]: 27.1 µM
GI50 [37]: 6.42 µM
TGI [37]: 34.3 µM
GI50 [38]: 11.5 µM
TGI [38]: 28.6 µM
GI50 [39]: 4.04 µM
TGI [39]: 15.9 µM
GI50 [40]: 14.5 µM
TGI [40]: > 100 µM
GI50 [41]: 3.87 µM
TGI [41]: 16.5 µM
GI50 [42]: 4.67 µM
TGI [42]: 18.2 µM
GI50 [43]: 11.6 µM
TGI [43]: 29.6 µM
GI50 [44]: 11.2 µM
TGI [44]: 25.3 µM
GI50 [45]: 5.72 µM
TGI [45]: 32.5 µM
GI50 [46]: 5.17 µM
TGI [46]: 18.9 µM
GI50 [47]: 10.6 µM
TGI [47]: 26.1 µM
GI50 [48]: 16.6 µM
TGI [48]: 36.2 µM
GI50 [49]: 10.3 µM
TGI [49]: 23.2 µM
GI50 [50]: 6.59 µM
TGI [50]: 27.2 µM
GI50 [51]: 3.79 µM
TGI [51]: 14.2 µM
GI50 [52]: 62.4 µM
TGI [52]: > 100 µM
GI50 [53]: 2870 nM
TGI [53]: 10.5 µM
GI50 [54]: 11.4 µM
TGI [54]: 24.2 µM
GI50 [55]: 3.75 µM
TGI [55]: > 100 µM
GI50 [56]: 4.17 µM
TGI [56]: 16.9 µM
GI50 [57]: 3.65 µM
TGI [57]: 14.6 µM
GI50 [58]: 4.06 µM
TGI [58]: 26.7 µM
